Measurements as given in US20220074923A1, “METHODS OF IDENTIFYING PARKIN-MEDIATED MITOPHAGY ACTIVATING AGENTS” (THE GOVERNING COUNCIL OF THE UNIVERSITY OF TORONTO, priority 2018, published 2022).

Experiments:
Canton(S) flies = format: in vivo, Drosophila
Description: Fresh vials containing standard fly food supplemented with the indicated treatments were changed out every 2 days. The number of flies surviving each day was counted and log-rank tests were performed to determine statistical significance. […] The number of flies to climb beyond 9.5 cm every 10 seconds was assessed. The percentage of flies in each treatment to cross this line was determined. The climbing ability of each treatment was normalized to the control group treated with water only. […] Log-rank tests were performed to determine p-values for survival analyses (a, b, g), *P<0.05. P-values were determined by one-tailed paired student's t-test for all climbing assays (c-e, h), *P<0.05. Data is expressed as mean±s.e.m. All error bars represent s.e.m
Drosophila aged 7 days are fed food supplemented with either water (control), 1 mM SR3677, 10 mM paraquat or SR3677 in combination with paraquat. The survival of flies was recorded each day following administration of the treatments and climbing abilities were tested every 2 days by performing negative geotaxis assays.
Male Canton(S) Drosophila were aged 7 days prior to feeding with standard fly food supplemented with water, 10 mM paraquat, 1 mM SR3677, or with combinations of these chemicals. Flies were placed into new vials containing fresh food supplemented with the treatments previously administered and 2 days later, climbing assays were performed. Flies were placed into plastic cylinder vials and tapped down, so all flies fell to the bottom. The number of flies to climb beyond 12.5 cm was counted every 10 s and values are represented as the percentage of total flies in each treatment group.

[1] = tested on: heteroplasmic mt:Col^T300l flies; experiment: Survival and climbing of heteroplasmic mt:CoI T300I flies; format: in vivo, Drosophila
Description: Finally, SR3677 in an alternate, genetic model of mitochondrial dysfunction was tested. Specifically, flies with a temperature-sensitive, de-stabilizing mutation in cytochrome c oxidase subunit I (mt:Col^T300l) were used. This mutation causes depolarization of the mitochondrial membrane potential and increased mitochondrial reactive oxygen species^44, manifesting in systemic consequences such as impaired climbing and survival. Flies with this mutation in 100% of their mitochondrial genomes, or homoplasmic flies, only survive 4 days post-eclosion. In order to extend our therapeutic window, SR3677 in heteroplasmic flies which contain this temperature-sensitive mutation in approximately 90% of their mtDNA instead^47 was tested. These flies retain the same phenotypes as homoplasmic flies, including reduced survival and climbing ability although to a less severe extent (FIG. 7).
Immediately following eclosion, male heteroplasmic mt:Col^T300l flies were transferred to vials containing either water, 1 or 2 mM SR3677. Newly eclosed Canton(S) male flies were placed into fresh vials and referenced as a control for these experiments and flies were raised at non-permissive 29° C. for these experiments. […]

TH-GAL4>UAS-mitoQC flies = experiment: In vivo mitoQC assay in dopaminergic neurons; design: species or system Drosophila; conditions: SR3677 with sublethal paraquat dose (1 mM), 7 days, vs water
Description: Cells were treated with 50 μM chloroquine for 16 hours prior to addition of E64, leupeptin, SR3677 and CCCP in the indicated treatment group. For the in vivo mitoQC assays, 5 7-day old male TH-GAL4>UAS-mitoQC were placed into vials containing water (control), sublethal 1 mM paraquat, 1 mM SR3677 alone and in combination with paraquat for 7 days. Whole flies were then fixed overnight in 1% PFA and 0.1% Tx-100. Fly brains were then dissected and fixed with 4% PFA for 20 minutes. 3 10-minute PBS washes were performed in between each step. Fly brains were mounted in VectaShield™ mounting medium for imaging using the Zeiss LSM700 confocal fluorescence microscope with 40× 1.4 NA Oil Plan-APOCRAMAT objective and the appropriate lasers and filter. 0.8 μm z-stacks were acquired to capture dopaminergic neurons expressing the mitoQC transgene. Laser settings were kept constant within each trial. At least 2 fly brains were imaged for each treatment across 4 independent trials.
The mitoQC assay may also be performed in Drosophila to quantify mitophagy specifically in cell types of interest using the GAL4/UAS system. Briefly, the mitoQC transgene was expressed in dopaminergic neurons using the TH-GAL4 driver^41. Since CCCP cannot be administered without affecting the viability of the flies, 7-day old flies were fed the parkinsonian toxin, paraquat. […]

HEK293 GFP Parkin cells = experiment: Immunoblotting of mitochondrial protein degradation after CCCP; format: cell-based
Description: (a) HEK293 GFP Parkin cells were treated with varying doses of SR3677 for 2 hours prior to induction of mitophagy with 10 μM CCCP for one hour. The percentage of cells with mitochondrial Parkin increased in a dose-dependent manner. […] Cell lysates were harvested, proteins were separated by SDS-PAGE and immunoblotting was performed with anti-Mfn2 and anti-actin antibodies. (c) Ponceau VDAC1 levels in each sample normalized to Ponceau staining. (d) Mfn2/actin levels in CCCP treated cells. (e) Densitometry analysis was performed to quantify Mfn2 and VDAC1 levels in each sample (n=4 independent experiments).
HEK293 GFP Parkin cells co-treated with 0.5 μM SR3677 or DMSO and 10 μM CCCP for the indicated time (hours). Cell lysates were separated by SDS-PAGE and immunoblotting was performed to assess turnover of IMM/matrix substrates (A) ATP5A, (B) UQCRC2 and (C) COXIV. Densitometry analysis was performed. Protein levels were normalized to Ponceau. Data is expressed as mean±s.e.m (n=6, 7 and 8 for a, b and c, respectively. 4) P-values were determined by paired student's t-test, *P<0.05.
Lysates were harvested using lysis buffer (0.1M Tris HCl, 0.01% SDS, pH 9) with 1× protease inhibitor cocktail (BioShop, PIC002.1). Lysates were then heated at 95° C. for 20 minutes with vortexing performed at 5-minute intervals. The BCA assay (Pierce, 23227) was performed to determine protein concentration, to standardize protein loading across samples to be compared. 12% SDS-PAGE gels were used to run samples to be analyzed for LC3 conversation and for Tom20 and 10% gels were run for all other samples. Transfer of proteins onto PVDF membrane (Immobilon, IPVH00010) was performed at 110V for 80 minutes or at 36V for 8 hours. Membranes were blocked with 5% skim milk in TBST (1×TBS, 0.1% Tween-20 [BioShop, 1M23298]) for 30 minutes prior to incubation in primary antibodies at a dilution of 1:1000 for all antibodies except anti-ROCK2 and anti-LC3, which were used at a dilution of 1:5000. Visualization of proteins was performed using ECL (BioRad, 11705062).
Densitometry was performed by normalizing bands corresponding to the protein of interest to a loading control such as actin using ImageLab 6.0 software (BioRad).

[2] = in vivo; cited from earlier work
[3] = 0.5 μM co-treated with 10 μM CCCP

SMILES: CN(C)CCOc1cc(-c2cn[nH]c2)ccc1NC(=O)[C@@H]1COc2ccccc2O1 [SR3677]
- survival of flies, compound alone (Canton(S) flies; 1 mM SR3677 in food): does not affect survival of flies
- survival of flies challenged with paraquat (Canton(S) flies; 1 mM SR3677 with 10 mM paraquat in food): significantly improved viability of flies
- survival ([1]; 1 mM and 2 mM in fly food, 29° C.): equally improved
- climbing ability ([1]; 2 mM in fly food, 7 days): improved
- percentage of red-only mitochondrial signal over the total mitochondrial signal (TH-GAL4>UAS-mitoQC flies): greater than flies whose food was supplemented with water
- degradation of ATP5A (HEK293 GFP Parkin cells; [3]): increased the degradation
- degradation of COXIV (HEK293 GFP Parkin cells; [3]): increased the degradation
- degradation of UQCRC2 (HEK293 GFP Parkin cells; [3]): enhanced
- fold lower concentration than Y39983 for comparable Mfn2 degradation (HEK293 GFP Parkin cells; 0.5 μM vs 10 μM): 20 fold
- turnover of VDAC1 (HEK293 GFP Parkin cells; 0.5 μM, 10 μM CCCP): increased the turnover
- concentration administered to enhance Mfn2 degradation (HEK293 GFP Parkin cells; 10 μM CCCP): 0.5 µM
- Mfn2 degradation following CCCP (HEK293 GFP Parkin cells; 2 h pre-treatment, 10 μM CCCP, Y39983 10 μM, SR3677 0.5 μM): Increased degradation of Mfn2
- bioavailability [2]: poor bioavailability
